Measured values: patent publication US9045505B2, “Nitric oxide donors” (University of Otago, priority 2006, dated 2015)

Columns and labels:
[1] = system: Jurkat cells; experiment: Respiration of Jurkat cells (O2 electrode); type: cell-based; details: 5 μM; for effect on respiration by Jurkat cells: 37° C.
Method: FIG. 10 is a series of traces and graphs showing the effect of MitoSNAP on respiration in cells. (a-d) Jurkat cells (55×10^6 cells) were incubated in PBS supplemented with 25 mM Hepes pH 7.2 (NaOH), 1 mM sodium pyruvate, 10 μM neocuproine and 100 μM DTPA in the stirred 2.5 ml chamber of an oxygen electrode at 37° C. with 5 μM MitoSNAP (a), MitoNAP (b), SNAP (c) or MitoSNAP and FCCP (500 nM) (d). Where indicated 5 μM OxyHb was added. Traces show typical experiments that were repeated at least three times. Sections of the 02 electrode trace where OxyHb was added for (a) and (b) have been expanded 4-fold in the vertical dimension to facilitate inspection. In all traces the dashed line indicates anaerobiosis. (e) Effect of MitoSNAP on O2 bioavailability in hypoxia. HeLa cells were incubated at 1% O2 concentration with 5% CO2 and the balance N2 for […] before the indicated treatments. Cellular pO2 values, measured by fluorescence quenching oximetry and expressed as mean±sd, are shown. (**p<0.001 compared to hypoxia alone and to MitoNAP treatments by ANOVA).
Cell culture. Cells were grown in medium supplemented with 10% fetal calf serum (FCS), penicillin (100 U.ml^−1) and streptomycin (100 μg.ml^−1) at 37° C. in a humidified atmosphere of 95% air/5% CO2. Jurkat cells were cultured in Roswell park memorial institute (RPMI) 1640 medium supplemented with 2 mM Glutamax and 25 mM Hepes. HeLa cells were grown in minimum essential eagle medium (MEM) containing 2 mM glutamine and non-essential amino acids and were grown to 100% confluence prior to use. […]
To evaluate the selective uptake of MitoSNAP by mitochondria within cells, the effect of MitoSNAP on respiration by Jurkat cells, a T lymphocyte cell line that grows in suspension, was measured using an O2 electrode (FIG. 10). […] Then the effects of a further 30 min incubation with MitoSNAP, MitoNAP or the mitochondrial inhibitor myxathiazol on the steady-state extracellular pO2 was assessed by fluorescence quenching oximetry (FIG. 10e).

[2] = system: endothelium-denuded rat small mesenteric artery; experiment: Vasorelaxation of endothelium-denuded rat small mesenteric artery; details: logistic fit; for EC50: Rattus norvegicus, precontracted with methoxamine
Method: FIG. 17 is a graph showing vasorelaxation of endothelium-denuded rat small mesenteric artery preparations by MitoSNAP and SNAP. To measure vessel relaxation in endothelium-denuded rat mesenteric artery male Wistar rats (250-350 g) were anesthetized with sodium pentobarbitone (60 mg/kg ip Sagatal, Rhone Merieux, Harlow, Essex UK). The mesentery was removed and placed in ice-cold, gassed (95% O2/5% CO2) Krebs-Henseleit buffer. […] Vessels were maintained at 37° C. in Krebs-Henseleit solution containing indomethacin (10 μM) and bubbled with 95% O2/5% CO2 and were allowed to equilibrate under zero tension for 60 min. After equilibration vessels were normalized to a tension equivalent that generated at 90% of the diameter of the vessel at 100 mm Hg^3. Vessels were precontracted with methoxamine and then sequential cumulative additions of test compounds were made to relax the vessels shielded from direct light. Relaxation of muscle tone are expressed as a percentage of relaxation of the initial tone. Data are means of four determination of MitoNAP and MitoSNAP and of 6 for SNAP. Data from the dose-response curves were fitted to a logistic curve, with the following parameters: […]

[3] = system: complex I; experiment: S-nitrosation of bovine heart mitochondrial membranes and complex I; type: biochemical

Q: What does the source list for `CC(=O)NC(C(=O)O)C(C)(C)SN=O` (racemic) [SNAP, S-nitroso-N-acetyl-DL-penicillamine, reference compound]?
A: effect on respiration by Jurkat cells [1]: had no effect on respiration; EC50 [2]: 5.2 ± 0.5 nM; max. relaxation of induced tone [2]: 92±2%; slope function (Hill slope) [2]: 1.0±0.1

Q: How did the “S-nitrosation of complex I (BN-PAGE, Cy3)” value ([3]; 75 μM, 5 min) turn out when `CC(=O)NC(C(=O)NCCCCC[P+](c1ccccc1)(c1ccccc1)c1ccccc1)C(C)(C)SN=O.CS(=O)(=O)[O-]` (stereo not drawn) [MitoSNAP, [5-(2-acetylamino-3-methyl-3-nitrosothio-butyrylamino)-penty1]-triphenylphosphonium methanesulfonate] was run?
A: complex I was S-nitrosated

Q: And the “formation of protein SNOs” value ([3]; 75 μM, 5 min, mean±SD, n=4)?
A: 4.8±0.9 nmol protein SNOB/mg protein

Q: What about the “decrease of SNO content by GSH treatment” value ([3]; 1 mM GSH) of the same compound?
A: ~53%

Q: And the “effect on respiration by Jurkat cells” value [1]?
A: respiration rate decreased and approached zero

Q: And the “time for which a low O2 concentration was maintained” value ([1]; low O2 concentrations)?
A: at least 30 min

Q: And the EC50 [2]?
A: 16.5 ± 1.1 nM

Q: And the “max. relaxation of induced tone” value [2]?
A: 96±1%

Q: What about the “slope function (Hill slope)” value [2] of the same compound?
A: 1.3±0.1
